US20250325534A1, “MICROBIOCIDAL TETRAHYDROISOQUINOLINE DERIVATIVES” (SYNGENTA CROP PROTECTION AG, priority 2021, published 2025)

How the values were obtained:
Monographella nivalis = Monographella nivalis (Microdochium nivale) / liquid culture (foot rot cereals); format: cell-based; conditions: 96 h, photometrically 4-5 days after application, read-out: control of Monographella nivalis
How it was run: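 Microdochium nivale conidia in potato dextrose broth were added to test compound in DMSO and incubated at 24° C. Growth inhibition was measured photometrically 4-5 days after application.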

Botryotinia fuckeliana = Botryotinia fuckeliana (Botrytis cinerea) / liquid culture (gray mould); format: cell-based; conditions: 72 h, growth inhibition photometrically 3-4 days after application, read-out: control of Botryotinia fuckeliana
Description: Example B2: Botryotinia Fuckeliana (Botrytis cinerea)/Liquid Culture (Gray Mould) Conidia of the fungus from cryogenic storage are directly mixed into a nutrient broth (Vogels broth). After placing a DMSO solution of test compound into a microtiter plate (96-well format), the nutrient broth containing the fungal spores is added. The test plates are incubated at 24° C. and the inhibition of growth is determined photometrically 3-4 days after application.

[1] = tested on: Mycosphaerella graminicola; experiment: Mycosphaerella graminicola (Septoria tritici) / liquid culture (Septoria blotch); format: cell-based; conditions: Zymoseptoria tritici, 96 h, photometrically 4-5 days after application, read-out: control of Mycosphaerella graminicola
How it was run: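 Conidia from cryogenic storage mixed into potato dextrose broth, added to test compound in DMSO. Plates incubated at 24° C; growth inhibition read photometrically 4-5 days after application.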

Glomerella lagenarium = Glomerella lagenarium (Colletotrichum lagenarium) / liquid culture (anthracnose); format: cell-based; conditions: Colletotrichum orbiculare, 72 h, photometrically 3-4 days after application, read-out: control of Glomerella lagenarium
How it was run: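 Conidia in potato dextrose broth added to test compound delivered as DMSO solution in microtiter plates; incubation at 24° C. Growth inhibition read photometrically 3-4 days after application.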

Phaeosphaeria nodorum = Phaeosphaeria nodorum (Septoria nodorum) / wheat / leaf disc preventative (glume blotch); format: in vivo; conditions: Parastagonospora nodorum, foliar, inoculated 2 days after application
Description: Example B9: Phaeosphaeria nodorum (Septoria nodorum)/Wheat/Leaf Disc Preventative (Glume Blotch) Wheat leaf segments cv. Kanzler are placed on agar in a multiwell plate (24-well format) and sprayed with the formulated test compound diluted in water. The leaf disks are inoculated with a spore suspension of the fungus 2 days after application. The inoculated test leaf disks are incubated at 20° C. and 75% relative humidity under a light regime of 12 h light/12 h darkness in a climate cabinet and the activity of a compound is assessed as percent disease control compared to untreated when an appropriate level of disease damage appears in untreated check leaf disks (5-7 days after application).

Mycosphaerella arachidis = Mycosphaerella arachidis (Cercospora arachidicola) / liquid culture (early leaf spot); format: cell-based; conditions: 96 h, photometrically 4-5 days after application, read-out: control of Mycosphaerella arachidis
How it was run: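 Cryostored M. arachidis conidia in potato dextrose broth were added to compound applied as DMSO solution. Incubated at 24 °C; growth inhibition measured photometrically 4-5 days after application.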

Alternaria solani = Alternaria solani / tomato / leaf disc (early blight); format: in vivo; conditions: foliar, inoculated 2 days after application, vs untreated control
Description: Example B1: Alternaria solani/Tomato/Leaf Disc (Early Blight) Tomato leaf disks cv. Baby are placed on agar in multiwell plates (24-well format) and sprayed with the formulated test compound diluted in water. The leaf disks are inoculated with a spore suspension of the fungus 2 days after application. The inoculated leaf disks are incubated at 23° C./21° C. (day/night) and 80% relative humidity under a light regime of 12 h/12 h (light/dark) in a climate cabinet and the activity of a compound is assessed as percent disease control compared to untreated when an appropriate level of disease damage appears on untreated check disk leaf disks (5-7 days after application).

Pyrenophora teres = Pyrenophora teres / barley / leaf disc preventative (net blotch); format: in vivo; conditions: foliar, inoculated 2 days after application
Description: Example B16: Pyrenophora teres/Barley/Leaf Disc Preventative (Net Blotch) Barley leaf segments cv. Hasso are placed on agar in a multiwell plate (24-well format) and sprayed with the formulated test compound diluted in water. The leaf segments are inoculated with a spore suspension of the fungus 2 days after application. The inoculated leaf segments are incubated at 20° C. and 65% relative humidity under a light regime of 12 h light/12 h darkness in a climate cabinet and the activity of a compound is assessed as disease control compared to untreated when an appropriate level of disease damage appears in untreated check leaf segments (5-7 days after application).

Cn1cc([C@]2(C)CN(C(=O)c3cc(-c4ccc(F)cc4F)on3)Cc3ccccc32)cn1 (single isomer, unassigned) [Compound P-49]
≥ 80%: inhibition of growth at 20 ppm (Monographella nivalis) | inhibition of growth at 20 ppm (Botryotinia fuckeliana) | inhibition of growth at 20 ppm [1] | inhibition of growth at 20 ppm (Glomerella lagenarium) | pest or weed control at 200 ppm (Phaeosphaeria nodorum)

Cn1cc(C2CN(C(=O)c3cc(-c4ccc(F)cc4F)on3)Cc3ccccc32)cn1 (single isomer, unassigned) [Compound P-142, [5-(2,4-difluorophenyl)isoxazol-3-yl]-[4-(1-methylpyrazol-4-yl)-3,4-dihydro-1H-isoquinolin-2-yl]methanone]
≥ 80%: inhibition of growth at 20 ppm (Mycosphaerella arachidis) | inhibition of growth at 20 ppm (Monographella nivalis) | inhibition of growth at 20 ppm (Botryotinia fuckeliana) | inhibition of growth at 20 ppm [1] | inhibition of growth at 20 ppm (Glomerella lagenarium) | pest or weed control at 200 ppm (Phaeosphaeria nodorum) | pest or weed control at 200 ppm (Alternaria solani)

CON=C(C)C1c2ccccc2C(c2cnn(C)c2)CN1C(=O)c1cc(-c2ccc(F)cc2F)on1 (stereo not drawn) [Compound P-10, [5-(2,4-difluorophenyl)isoxazol-3-yl]-[1-(N-methoxy-C-methyl-carbonimidoyl)-4-(1-methylpyrazol-4-yl)-3,4-dihydro-1H-isoquinolin-2-yl]methanone]
≥ 80%: inhibition of growth at 20 ppm [1] | inhibition of growth at 20 ppm (Glomerella lagenarium) | pest or weed control at 200 ppm (Phaeosphaeria nodorum) | pest or weed control at 200 ppm (Alternaria solani)

CON=C(C)c1c(C2CN(C(=O)c3cc(-c4ccc(F)cc4F)on3)Cc3ccccc32)cnn1C (stereo not drawn) [Compound P-13, [5-(2,4-difluorophenyl)isoxazol-3-yl]-[4-[5-(N-methoxy-C-methyl-carbonimidoyl)-1-methyl-pyrazol-4-yl]-3,4-dihydro-1H-isoquinolin-2-yl]methanone]
≥ 80%: inhibition of growth at 20 ppm (Monographella nivalis) | inhibition of growth at 20 ppm [1] | pest or weed control at 200 ppm (Phaeosphaeria nodorum) | pest or weed control at 200 ppm (Alternaria solani)

COc1ccc2c(c1)C(C)(c1cnn(C)c1)CN(C(=O)c1cc(-c3ccc(F)cc3F)on1)C2C (stereo not drawn) [Compound P-40, [5-(2,4-difluorophenyl)isoxazol-3-yl]-[6-methoxy-1,4-dimethyl-4-(1-methylpyrazol-4-yl)-1,3-dihydroisoquinolin-2-yl]methanone]
≥ 80%: inhibition of growth at 20 ppm (Mycosphaerella arachidis) | inhibition of growth at 20 ppm (Monographella nivalis) | inhibition of growth at 20 ppm [1] | pest or weed control at 200 ppm (Phaeosphaeria nodorum)

COc1cc(F)ccc1-c1cc(C(=O)N2Cc3ccccc3C(c3cnn(C)c3C)C2)no1 (stereo not drawn) [Compound P-46, [4-(1,5-dimethylpyrazol-4-yl)-3,4-dihydro-1H-isoquinolin-2-yl]-[5-(4-fluoro-2-methoxy-phenyl)isoxazol-3-yl]methanone]
≥ 80%: inhibition of growth at 20 ppm (Mycosphaerella arachidis) | inhibition of growth at 20 ppm (Monographella nivalis) | inhibition of growth at 20 ppm [1] | pest or weed control at 200 ppm (Phaeosphaeria nodorum) | pest or weed control at 200 ppm (Alternaria solani)

Cn1cc(C2CN(C(=O)c3nnc(-c4ccccc4F)o3)Cc3ccccc32)cn1 (stereo not drawn) [Compound P-54, [5-(2-fluorophenyl)-1,3,4-oxadiazol-2-yl]-[4-(1-methylpyrazol-4-yl)-3,4-dihydro-1H-isoquinolin-2-yl]methanone]
≥ 80%: inhibition of growth at 20 ppm [1] | pest or weed control at 200 ppm (Pyrenophora teres)

Cn1cc(C2CN(C(=O)c3cc(-c4ccc(F)cc4F)on3)Cc3ccc(C#N)cc32)cn1 (stereo not drawn) [Compound P-62, 2-[5-(2,4-difluorophenyl)isoxazole-3-carbonyl]-4-(1-methylpyrazol-4-yl)-3,4-dihydro-1H-isoquinoline-6-carbonitrile]
≥ 80%: inhibition of growth at 20 ppm (Monographella nivalis) | inhibition of growth at 20 ppm [1] | inhibition of growth at 20 ppm (Glomerella lagenarium) | pest or weed control at 200 ppm (Phaeosphaeria nodorum)

Cn1cc(C2CN(C(=O)c3cc(-c4ccccc4F)no3)Cc3ccccc32)cn1 (stereo not drawn) [Compound P-154, [3-(2-fluorophenyl)isoxazol-5-yl]-[4-(1-methylpyrazol-4-yl)-3,4-dihydro-1H-isoquinolin-2-yl]methanone]
≥ 80%: inhibition of growth at 20 ppm (Mycosphaerella arachidis) | inhibition of growth at 20 ppm (Monographella nivalis) | inhibition of growth at 20 ppm (Botryotinia fuckeliana) | inhibition of growth at 20 ppm [1] | inhibition of growth at 20 ppm (Glomerella lagenarium)

Cn1cc(C2CN(C(=O)c3cc(-c4ccccc4)no3)Cc3ccccc32)cn1 (stereo not drawn) [Compound P-158, [4-(1-methylpyrazol-4-yl)-3,4-dihydro-1H-isoquinolin-2-yl]-(3-phenylisoxazol-5-yl)methanone]
≥ 80%: inhibition of growth at 20 ppm (Mycosphaerella arachidis) | inhibition of growth at 20 ppm (Monographella nivalis) | inhibition of growth at 20 ppm (Botryotinia fuckeliana) | inhibition of growth at 20 ppm [1] | inhibition of growth at 20 ppm (Glomerella lagenarium) | pest or weed control at 200 ppm (Alternaria solani)

Cn1cc(C2CN(C(=O)c3nnc(-c4ccccc4)s3)Cc3ccccc32)cn1 (stereo not drawn) [Compound P-162, [4-(1-methylpyrazol-4-yl)-3,4-dihydro-1H-isoquinolin-2-yl]-(5-phenyl-1,3,4-thiadiazol-2-yl)methanone]
≥ 80%: inhibition of growth at 20 ppm (Mycosphaerella arachidis) | inhibition of growth at 20 ppm (Monographella nivalis) | inhibition of growth at 20 ppm (Botryotinia fuckeliana) | inhibition of growth at 20 ppm [1] | inhibition of growth at 20 ppm (Glomerella lagenarium)

Cc1ccc(-c2cc(C(=O)N3Cc4ccccc4C(c4cnn(C)c4)C3)no2)cc1 (stereo not drawn) [Compound P-204, [4-(1-methylpyrazol-4-yl)-3,4-dihydro-1H-isoquinolin-2-yl]-[5-(p-tolyl)isoxazol-3-yl]methanone]
≥ 80%: inhibition of growth at 20 ppm [1] | pest or weed control at 200 ppm (Phaeosphaeria nodorum)

Cn1cc([C@@]2(C)CN(C(=O)c3nnc(-c4ccc(F)cc4F)s3)Cc3ccccc32)cn1 [Compound P-209, [5-(2,4-difluorophenyl)-1,3,4-thiadiazol-2-yl]-[(4S)-4-methyl-4-(1-methylpyrazol-4-yl)-1,3-dihydroisoquinolin-2-yl]methanone]
≥ 80%: inhibition of growth at 20 ppm (Mycosphaerella arachidis) | inhibition of growth at 20 ppm (Monographella nivalis) | inhibition of growth at 20 ppm (Botryotinia fuckeliana) | inhibition of growth at 20 ppm [1] | inhibition of growth at 20 ppm (Glomerella lagenarium)

CC1c2ccc(Br)cc2C(C)(c2cnn(C)c2)CN1C(=O)c1cc(-c2ccc(F)cc2F)on1 (stereo not drawn) [Compound P-215, [6-bromo-1,4-dimethyl-4-(1-methylpyrazol-4-yl)-1,3-dihydroisoquinolin-2-yl]-[5-(2,4-difluorophenyl)isoxazol-3-yl]methanone]
≥ 80%: inhibition of growth at 20 ppm (Mycosphaerella arachidis) | inhibition of growth at 20 ppm (Monographella nivalis) | inhibition of growth at 20 ppm (Botryotinia fuckeliana) | inhibition of growth at 20 ppm [1] | inhibition of growth at 20 ppm (Glomerella lagenarium)

CCC1(c2cnn(C)c2)CN(C(=O)c2cc(-c3ccc(F)cc3F)on2)Cc2ccccc21 (stereo not drawn) [Compound P-221, [5-(2,4-difluorophenyl)isoxazol-3-yl]-[4-ethyl-4-(1-methylpyrazol-4-yl)-1,3-dihydroisoquinolin-2-yl]methanone]
≥ 80%: inhibition of growth at 20 ppm (Mycosphaerella arachidis) | inhibition of growth at 20 ppm [1] | pest or weed control at 200 ppm (Phaeosphaeria nodorum)
